Results as given in US6844349B2, “Salt forms of E-2-methoxy-N-(3-{4-[3 methyl-4-(6-methyl-pyridin-3-yloxy)-phenylamino]-quinazolin-6-yl}-allyl)-acetamide and method of production” (Pfizer Inc, priority 2001, dated 2005).

What was measured:
[1] = crystallinity of the complexes; type: physicochemical; settings: solid complex; i.e., substantially free of amorphous material
[2] = hygroscopic stability of the complexes; type: physicochemical; settings: solid complex; weight changes of the active ingredient during manufacture of capsules or tablets

crystallinity [1]	hygroscopic stability [2]	Compound
high crystallinity	substantially hygroscopically stable	COCC(=O)NC/C=C/c1ccc2ncnc(Nc3ccc(Oc4ccc(C)nc4)c(C)c3)c2c1.O=C(O)CC(=O)O.O=C(O)CC(=O)O [di-malonate, Di-malonate Complex of E-2-Methoxy-N-(3-{4-[3-methyl-4-(6-methyl-pyridin-3-yloxy)-phenylamino]-quinazolin-6-yl}-allyl)-acetamide]
high crystallinity	substantially hygroscopically stable	COCC(=O)NC/C=C/c1ccc2ncnc(Nc3ccc(Oc4ccc(C)nc4)c(C)c3)c2c1.COCC(=O)NC/C=C/c1ccc2ncnc(Nc3ccc(Oc4ccc(C)nc4)c(C)c3)c2c1.O=C(O)CCC(=O)O.O=C(O)CCC(=O)O.O=C(O)CCC(=O)O [sesquisuccinate, Sesquisuccinate Complex of E-2-Methoxy-N-(3-{4-[3-methyl-4-(6-methyl-pyridin-3-yloxy)-phenylamino]-quinazolin-6-yl}-allyl)-acetamide]
